From PMC10033419, “Blocking NS3–NS4B interaction inhibits dengue virus in non-human primates” (Nature, 2023)
Values joined by “and” are separate entries in the source; they are usually repeats but may differ in a detail not shown here. Equal values may be shown once. Read-outs that look alike come from different tables or passages of the source.

System: DENV-2 RL
Experiment: microbe, parasite or virus in culture
Assay type: cell-based

COc1cc(N[C@H](C(=O)c2c[nH]c3ccc(OC(F)(F)F)cc23)c2ccc(Cl)cc2OC)cc(S(C)(=O)=O)c1 [JNJ-1802]
EC50 (A sample, passage 20, read-out: EC50 values Ave): 32.2 nM | EC50 (A sample, passage 21, read-out: EC50 values Ave): 32.2 nM | EC50 (A sample, passage 22, read-out: EC50 values Ave): 32.2 nM | EC50 (A sample, passage 23, read-out: EC50 values Ave): 32.2 nM | EC50 (B sample, passage 29, read-out: EC50 values Ave): 32.2 nM | EC50 (B sample, passage 30, read-out: EC50 values Ave): 32.2 nM | EC50 (Dengue virus, DENV2, Vero, read-out: EC50 by microscopic evaluation of CPE, experiment A, passage 0): 0.06 nM | EC50 (Dengue virus, DENV2, Vero, read-out: EC50 by microscopic evaluation of CPE, experiment A, passage 5): 0.06 nM | EC50 (Dengue virus, DENV2, Vero, read-out: EC50 by microscopic evaluation of CPE, experiment A, passage 10): 0.25 nM | EC50 (Dengue virus, DENV2, Vero, read-out: EC50 by microscopic evaluation of CPE, experiment A, passage 15): 1 nM | EC50 (Dengue virus, DENV2, Vero, read-out: EC50 by microscopic evaluation of CPE, experiment A, passage 25): 64 nM | EC50 (Dengue virus, DENV2, Vero, read-out: EC50 by microscopic evaluation of CPE, experiment A, passage 30): 260 nM | EC50 (Dengue virus, DENV2, Vero, read-out: EC50 by microscopic evaluation of CPE, experiment A, passage 35): 260 nM | EC50 (Dengue virus, DENV2, Vero, read-out: EC50 by microscopic evaluation of CPE, experiment A, passage 40): 1290 nM | EC50 (Dengue virus, DENV2, Vero, read-out: EC50 by microscopic evaluation of CPE, experiment A, passage 42): 1290 nM | EC50 (Dengue virus, DENV2, Vero, read-out: EC50 by microscopic evaluation of CPE, experiment B, passage 0): 0.06 nM | EC50 (Dengue virus, DENV2, Vero, read-out: EC50 by microscopic evaluation of CPE, experiment B, passage 5): 0.06 nM | EC50 (Dengue virus, DENV2, Vero, read-out: EC50 by microscopic evaluation of CPE, experiment B, passage 20): 0.5 nM | EC50 (Dengue virus, DENV2, Vero, read-out: EC50 by microscopic evaluation of CPE, experiment B, passage 25): 4 nM | EC50 (Dengue virus, DENV2, Vero, read-out: EC50 by microscopic evaluation of CPE, experiment B, passage 35): 80 nM | EC50 (Dengue virus, DENV2, Vero, read-out: EC50 by microscopic evaluation of CPE, experiment B, passage 45): 640 nM | EC50 (Dengue virus, DENV2, Vero, read-out: EC50 by microscopic evaluation of CPE, experiment B, passage 50): 1290 nM | EC50 (Dengue virus, DENV2, Vero, read-out: EC50 values Ave, A sample, passage 1): 3.7e-05 µg/mL and 0.063 nM | EC50 (Dengue virus, DENV2, Vero, read-out: EC50 values Ave, A sample, passage 2): 3.7e-05 µg/mL and 0.063 nM | EC50 (Dengue virus, DENV2, Vero, read-out: EC50 values Ave, A sample, passage 3): 3.7e-05 µg/mL and 0.063 nM | EC50 (Dengue virus, DENV2, Vero, read-out: EC50 values Ave, A sample, passage 4): 3.7e-05 µg/mL and 0.063 nM | EC50 (Dengue virus, DENV2, Vero, read-out: EC50 values Ave, A sample, passage 5): 3.7e-05 µg/mL and 0.063 nM | EC50 (Dengue virus, DENV2, Vero, read-out: EC50 values Ave, A sample, passage 6): 0.126 nM | EC50 (Dengue virus, DENV2, Vero, read-out: EC50 values Ave, A sample, passage 7): 3.7e-05 µg/mL and 0.063 nM | EC50 (Dengue virus, DENV2, Vero, read-out: EC50 values Ave, A sample, passage 8): 3.7e-05 µg/mL and 0.063 nM | EC50 (Dengue virus, DENV2, Vero, read-out: EC50 values Ave, A sample, passage 9): 0.126 nM | EC50 (Dengue virus, DENV2, Vero, read-out: EC50 values Ave, A sample, passage 10): 0.000146 µg/mL and 0.251 nM | EC50 (Dengue virus, DENV2, Vero, read-out: EC50 values Ave, A sample, passage 11): 0.000146 µg/mL and 0.251 nM | EC50 (Dengue virus, DENV2, Vero, read-out: EC50 values Ave, A sample, passage 12): 0.000146 µg/mL and 0.251 nM | EC50 (Dengue virus, DENV2, Vero, read-out: EC50 values Ave, A sample, passage 13): 0.000293 µg/mL and 0.503 nM | EC50 (Dengue virus, DENV2, Vero, read-out: EC50 values Ave, A sample, passage 14): 1.01 nM | EC50 (Dengue virus, DENV2, Vero, read-out: EC50 values Ave, A sample, passage 15): 1.01 nM | EC50 (Dengue virus, DENV2, Vero, read-out: EC50 values Ave, A sample, passage 16): 0.00117 µg/mL and 2.01 nM | EC50 (Dengue virus, DENV2, Vero, read-out: EC50 values Ave, A sample, passage 17): 0.00234 µg/mL and 4.02 nM | EC50 (Dengue virus, DENV2, Vero, read-out: EC50 values Ave, A sample, passage 18): 0.00469 µg/mL and 8.04 nM | EC50 (Dengue virus, DENV2, Vero, read-out: EC50 values Ave, A sample, passage 24): 0.0375 µg/mL and 64.3 nM | EC50 (Dengue virus, DENV2, Vero, read-out: EC50 values Ave, A sample, passage 25): 0.0375 µg/mL and 64.3 nM | EC50 (Dengue virus, DENV2, Vero, read-out: EC50 values Ave, A sample, passage 26): 129 nM | EC50 (Dengue virus, DENV2, Vero, read-out: EC50 values Ave, A sample, passage 27): 0.15 µg/mL and 257 nM | EC50 (Dengue virus, DENV2, Vero, read-out: EC50 values Ave, A sample, passage 28): 0.15 µg/mL and 257 nM | EC50 (Dengue virus, DENV2, Vero, read-out: EC50 values Ave, A sample, passage 29): 0.15 µg/mL and 257 nM | EC50 (Dengue virus, DENV2, Vero, read-out: EC50 values Ave, A sample, passage 30): 0.15 µg/mL and 257 nM | EC50 (Dengue virus, DENV2, Vero, read-out: EC50 values Ave, A sample, passage 31): 129 nM | EC50 (Dengue virus, DENV2, Vero, read-out: EC50 values Ave, A sample, passage 32): 129 nM | EC50 (Dengue virus, DENV2, Vero, read-out: EC50 values Ave, A sample, passage 33): 0.15 µg/mL and 257 nM | EC50 (Dengue virus, DENV2, Vero, read-out: EC50 values Ave, A sample, passage 34): 0.15 µg/mL and 257 nM | EC50 (Dengue virus, DENV2, Vero, read-out: EC50 values Ave, A sample, passage 35): 0.15 µg/mL and 257 nM | EC50 (Dengue virus, DENV2, Vero, read-out: EC50 values Ave, A sample, passage 36): 0.15 µg/mL and 257 nM | EC50 (Dengue virus, DENV2, Vero, read-out: EC50 values Ave, A sample, passage 37): 0.3 µg/mL and 515 nM | EC50 (Dengue virus, DENV2, Vero, read-out: EC50 values Ave, A sample, passage 38): 0.3 µg/mL and 515 nM | EC50 (Dengue virus, DENV2, Vero, read-out: EC50 values Ave, A sample, passage 39): 1290 nM | EC50 (Dengue virus, DENV2, Vero, read-out: EC50 values Ave, A sample, passage 40): 1290 nM | EC50 (Dengue virus, DENV2, Vero, read-out: EC50 values Ave, A sample, passage 41): 1290 nM | EC50 (Dengue virus, DENV2, Vero, read-out: EC50 values Ave, A sample, passage 42 (END)): 1290 nM | EC50 (Dengue virus, DENV2, Vero, read-out: EC50 values Ave, B sample, passage 1): 3.7e-05 µg/mL and 0.063 nM | EC50 (Dengue virus, DENV2, Vero, read-out: EC50 values Ave, B sample, passage 2): 3.7e-05 µg/mL and 0.063 nM | EC50 (Dengue virus, DENV2, Vero, read-out: EC50 values Ave, B sample, passage 3): 3.7e-05 µg/mL and 0.063 nM | EC50 (Dengue virus, DENV2, Vero, read-out: EC50 values Ave, B sample, passage 4): 3.7e-05 µg/mL and 0.063 nM | EC50 (Dengue virus, DENV2, Vero, read-out: EC50 values Ave, B sample, passage 5): 3.7e-05 µg/mL and 0.063 nM | EC50 (Dengue virus, DENV2, Vero, read-out: EC50 values Ave, B sample, passage 6): 0.126 nM | EC50 (Dengue virus, DENV2, Vero, read-out: EC50 values Ave, B sample, passage 7): 0.126 nM
